Read-outs that look alike come from different tables or passages of the source.
Legend:
in vitro = conditions: human; for efflux ratio at 90 min, 10 µM: Caco-2, pH 7.4, Net efflux (quotient of Papp (BA) to Papp (AB)); for Papp A→B at 90 min, 10 μM: Caco-2, pH 7.4, Papp (AB); for Papp B→A at 90 min, 10 μM: Caco-2, pH 7.4, Papp (BA)
P-gp = assay: in vitro; conditions: human, Caco-2, pH 7.4, Net efflux in the presence of Verapamil
[1] = pH 7.4, LogD, pH 7.4 (mean / reported value)
Description: Log D. Determination of distribution coefficients were performed as follows:
Incubations were carried out in Eppendorf-type polypropylene microtubes in triplicates. […] Phase separation was assured by centrifugation for 2 min at 6000 rpm. The octanol phase was diluted 100-fold with 40% acetonitrile, and aqueous phase was analyzed without dilution. The samples (both phases) were analyzed using HPLC system coupled with tandem mass spectrometer.

[2] = PAMPA, pH 7.4
Excerpt: The Parallel Artificial Membrane Permeability Assay (PAMPA) is used as an in vitro model of passive, transcellular permeation. […] This assay also allows evaluation of permeability over a large pH range, which is valuable for a preliminary understanding of how orally delivered compounds might be absorbed across the entire gastrointestinal tract. […] Depending upon the types of lipids used and other experimental conditions, PAMPA may be designed to model absorption in gastrointestinal tract (PAMPA-GIT), blood-brain barrier penetration (PAMPA-BBB) or skin penetration (Skin PAMPA). All steps of the PAMPA were carried out according to pION Inc. PAMPA Explorer™ Manual. The main principle of the assay is the incubation of compound in donor chamber (a well in Donor Plate) with aqueous buffer, which is separated from acceptor chamber (a well in Acceptor Plate) with another buffer by a phospholipid or hydrocarbon membrane fixed on a filter support. After the test, concentrations in the corresponding donor and acceptor wells are measured and permeability is calculated. GIT model was simulated using GIT-0 phospholipid mix. […] All compounds were tested in triplicates. Prisma HT buffer (pH 7.4) containing 50 μM test compounds and 0.5% DMSO were added into the Donor Plate wells. Acceptor Sink buffer was added into each well of the acceptor plate. Incubation was done at room temperature for 4 hours without stirring. […] Compounds with low UV-Vis signal were detected by LC-MS/MS method. Then the apparent permeability coefficient was calculated.

[3] = for Papp A→B: Caco-2, Papp (AB); for Papp B→A: Caco-2, Papp (BA)

**Q.** With `C[C@H]1O[C@@H](O[C@H]2[C@@H](O)C[C@H](O[C@H]3[C@@H](O)C[C@H](O[C@H]4CC[C@@]5(C)[C@H](CC[C@@H]6[C@@H]5C[C@@H](O)[C@]5(C)[C@@H](C7=CC(=O)OC7)CC[C@]65O)C4)O[C@@H]3C)O[C@@H]2C)C[C@H](O)[C@@H]1O` [Digoxin] as the molecule, how does the efflux ratio at 90 min, 10 µM (in vitro) read?
**A.** 28.6

**Q.** And the Papp A→B at 90 min, 10 μM (in vitro; Mean)?
**A.** 0.4 ×10⁻⁶ cm/s

**Q.** And the Papp A→B at 90 min, 10 μM (in vitro; replicate 1)?
**A.** 0.4 ×10⁻⁶ cm/s

**Q.** What about the Papp A→B at 90 min, 10 μM (in vitro; replicate 3) of the same molecule?
**A.** 0.5 ×10⁻⁶ cm/s

**Q.** What about the Papp B→A at 90 min, 10 μM (in vitro; Mean) of the same molecule?
**A.** 12 ×10⁻⁶ cm/s

**Q.** And the Papp B→A at 90 min, 10 μM (in vitro; replicate 1)?
**A.** 9.4 ×10⁻⁶ cm/s

**Q.** And the Papp B→A at 90 min, 10 μM (in vitro; replicate 2)?
**A.** 12 ×10⁻⁶ cm/s

**Q.** And the Papp B→A at 90 min, 10 μM (in vitro; replicate 3)?
**A.** 14.7 ×10⁻⁶ cm/s

**Q.** And the efflux ratio at 90 min, 10 µM (P-gp)?
**A.** 1.5

**Q.** For `C[C@@H]1NC(=O)[C@H](C)NC(=O)[C@@H](C)N(C)C(=O)[C@H](C)N(C)C(=O)[C@H](C)NC(=O)[C@H](C)NC1=O` [1,6CHA, *aAAAA*A], which logD [1] is on record?
**A.** -0.97

**Q.** What about the “Papp (AB), replicate 1” value (Caco-2 cells) of the same molecule?
**A.** 0.0 10^−6 cm/s

**Q.** What about the Mass retention [2] of the same molecule?
**A.** 27%

**Q.** What about the “Permeability, Mean” value [2] of the same molecule?
**A.** <−7 Log10[10^−6 cm/s]

**Q.** What about the “Permeability, replicate 1” value [2] of the same molecule?
**A.** <−7 Log10[10^−6 cm/s]

**Q.** And the “Permeability, replicate 2” value [2]?
**A.** <−7 Log10[10^−6 cm/s]

**Q.** And the “Permeability, replicate 3” value [2]?
**A.** <−7 Log10[10^−6 cm/s]

**Q.** What about the Papp A→B ([3]; Mean) of the same molecule?
**A.** 0.1 ×10⁻⁶ cm/s

**Q.** What about the Papp A→B ([3]; replicate 2) of the same molecule?
**A.** 0.1 ×10⁻⁶ cm/s

**Q.** And the Papp A→B ([3]; replicate 3)?
**A.** 0.1 ×10⁻⁶ cm/s

**Q.** And the Papp B→A ([3]; Mean)?
**A.** 0.1 ×10⁻⁶ cm/s

**Q.** What about the Papp B→A ([3]; replicate 1) of the same molecule?
**A.** 0.1 ×10⁻⁶ cm/s

**Q.** And the Papp B→A ([3]; replicate 2)?
**A.** 0.1 ×10⁻⁶ cm/s

**Q.** What about the Papp B→A ([3]; replicate 3) of the same molecule?
**A.** 0.2 ×10⁻⁶ cm/s

**Q.** And the efflux ratio at 90 min, 10 µM (in vitro)?
**A.** 1.1
